{"source": "patent US20110218515A1", "about": "“Methods for Treating Acute Myocardial Infarctions and Associated Disorders” (The Regents of the University of California, priority 2009, published 2011)", "key": {"[1]": {"system": "ischemia-reperfusion rat model", "assay": "Histological analysis of infarct size and fibrosis", "format": "in vivo, Sprague-Dawley rats", "description": "After baseline echocardiography, thirty male Sprague-Dawley rats, ages 6-10 weeks, underwent myocardial infarction using an ischemia-reperfusion model. Briefly, rats were anesthetized using inhaled isoflurane (5% induction, 2.5% maintenance, O2 output 1 L/min) and positioned supine on an electrically warmed animal surgery platform. Rats were intubated using a 16-gauge i.v. catheter and then ventilated using a Harvard rodent respirator. After a left thoracotomy and pericardiotomy were performed, a 7-0 Ticron suture was introduced into the myocardium, using the left atrial appendage and right outflow tract as landmarks. The depth of entry was 2 mm, which was slightly greater than the level of the left coronary artery. Both suture ends were then threaded through a PE-90 polyethylene tube 6 in. in length to form a “snare loop” around the artery, closed by pulling on the free ends of the suture. […] The suture was then tightened to occlude the artery for 20 minutes and then removed to allow for reperfusion. The chest was then closed with 5-0 prolene suture, and the animal was allowed to recover. After one week and repeat echocardiography, rats were randomized to placebo rodent feed (control group, n=15) or rodent feed mixed with 1.2% pirfenidone (PFD) (treatment group, n=15) for four weeks. All experiments and data analyses were performed with the operator blinded to treatment group.\nVentricular tissue samples were fixed in 10% neutral buffered formalin. The samples were embedded in paraffin, sectioned (10-μm thick), and then stained with Masson's trichrome or Sirius red with fast green counterstain. Stained slides were examined under light microscopy, digitized using a high-resolution scanner, and analyzed using Photoshop CS software. Infarct areas on Masson's trichome corresponded tightly with areas of dense Sirius red staining with minimal to no fast green. Infarct scar area and total area of left ventricular myocardium, for all sections, were manually traced in the digital images and automatically calculated by the software. Infarct size, expressed as a percentage, was measured by dividing the sum of infarct areas from all sections by the sum of LV areas from all sections and multiplying by 100.\nThe total area of fibrosis was also assessed. After excluding the infarct area (defined as dense fibrosis), fibrosis in the border and non-infarct zones was quantified from digital photomicrographs of the Sirius red-stained sections. Areas containing blood vessels and perivascular interstitial cells were also excluded from fibrosis quantification. The red pixel content of digitized images relative to the total tissue area was counted by using the Adobe Photoshop CS software."}, "[2]": {"system": "congestive heart failure dogs, coronary perfused left ventricular preparation", "assay": "VF organization index analysis, pacing-induced heart failure dogs", "format": "in vivo", "design": "key to OI Spatial CoV / OI Temporal CoV: coefficient of variance = SD/mean", "details": "CHF dogs with PFD", "source_text": "Animal Models: Twenty-four dogs weighing 25-30 Kg were divided into three groups: control (n=11), congestive heart failure (n=7), and congestive heart failure with the antifibrotic drug pirfenidone (n=6). Heart Failure (CHF) was induced in 7 dogs via four weeks of rapid ventricular pacing via a lead placed in the RV and pulse generator set to pace at 240 bpm followed by ablation of the AV node to create complete heart block, as described in Li, et al., Circulation 1999; 100:87-95. Ventricular function was monitored weekly with transthoracic echocardiography for 4 weeks. At 4 weeks, the optical mapping study was performed.\nHeart Failure with Pirfenidone (PFD): Heart failure was induced in 6 dogs as described above and PFD was administered as described in Lee et al., Circulation 2006; 114; 1703-12. Oral PFD (800 mg 3 times per day; InterMune, Brisbane, Calif.) was started 2 days before the initiation of pacing and was discontinued >6 half-lives (24 hours) before the optical mapping study.\nWith an optical mapping system described in Wu et al., J Cardiovasc Electrophysiol 1998; 9:1336-47, optical recordings were then made from 4-cm^2 area on 3 surfaces of the preparation (epicardial, endocardial (including the papillary muscle, and transmural) by a 16×16 photodiode array (C4657 Hamamatsu, Bridgewater, N.J.) that recorded 256 simultaneous optical action potentials. During optical recordings from a preparation, contractility was blocked with 15 mM 2,3-butadione monoxime (BDM; Sigma-Aldrich)11. Plunge electrodes were placed on the recording surface around the field of view for both pacing and monitoring. Two plunge electrodes were dedicated for recording a bipolar signal for monitoring the electrical activity of the preparation. VF was initiated with either extra stimuli or with rapid burst pacing at a cycle length of 50 ms, a pulse width of 9.9 ms, and an output of 9.9 mA. Several 4-s episodes of VF were recorded on each surface in each preparation. Activation movies of the VF were then viewed, and the activation patterns were determined. After termination of VF, signals were obtained during pacing at 250 ms and isochronal maps of activation were constructed to look at conduction. Activation patterns and wave-front direction during VF were determined from raw fluorescence movies (isopotential). […] VF was defined as rapid and irregular activations on the bipolar signal used for monitoring the electrical activity of the preparation.\nSignal Processing and Frequency Domain Analysis: The signals obtained from the optical mapping recordings were sampled at 2,000 Hz, and for each signal the dominant frequency (DF) was determined and the organization was calculated as described Everett, et al., IEEE Trans Biomed Eng 2001; 48:969-78. Briefly, a fast Fourier transform (FFT) was calculated on the digitally filtered waveform. The data were detrended and multiplied by a Hamming window. The largest peak of the resulting magnitude spectrum was identified, and the positions of the harmonic peaks were determined on the basis of its position. The areas under the largest peak and three of its harmonic peaks were each calculated over a 1-Hz window. This produced an area under four peaks. The total area of the spectrum was calculated from 2 Hz up to but not including the fifth harmonic peak. The ratio of the power under the harmonic peaks to the total power in this range was calculated, and the resulting number was defined as the organization index (OI). The OI was theorized to represent the organization of AF for that signal at that period in time. To calculate the variance of the DFs, spatial coefficient of variance (SD/mean) of the DFs during a single episode of AF among all recording sites and temporal coefficient of variance of average DFs from among AF episodes for each mapping field within each preparation were calculated. Discrete, stable, high frequency areas were noted. […]"}}}
{"smiles": "Cc1ccc(=O)n(-c2ccccc2)c1", "note": "[pirfenidone]", "values": [{"measurement": "amount of fibrosis (including border zones and non-MI areas and infarct scar)", "setting": "[1]; controls 23±2%, p=0.01", "result": "13±3", "unit": "%"}, {"measurement": "total amount of fibrosis and extra-infarct fibrosis", "setting": "[1]; rat MI model", "result": "attenuated"}, {"measurement": "infarct size, percent of total myocardium", "setting": "[1]; rat MI model, controls 18%±2.7%, p=0.022", "result": "10±1.9", "unit": "%"}, {"measurement": "fibrosis within the infarct border zone", "setting": "[1]; rat MI model, vs control infarcts", "result": "not only decreased but its distribution appeared less heterogeneous"}, {"measurement": "Max OI", "setting": "[2]; Endocardium", "result": "0.61 ± 0.05"}, {"measurement": "Mean OI", "setting": "[2]; Endocardium", "result": "0.45 ± 0.05"}, {"measurement": "OI Spatial CoV", "setting": "[2]; Endocardium", "result": "0.16 ± 0.03"}, {"measurement": "OI Temporal CoV", "setting": "[2]; Endocardium", "result": "0.13 ± 0.01"}, {"measurement": "Max OI", "setting": "[2]; Epicardium", "result": "0.62 ± 0.05"}, {"measurement": "Mean OI", "setting": "[2]; Epicardium", "result": "0.44 ± 0.05"}, {"measurement": "OI Spatial CoV", "setting": "[2]; Epicardium", "result": "0.17 ± 0.01"}, {"measurement": "OI Temporal CoV", "setting": "[2]; Epicardium", "result": "0.14 ± 0.01"}, {"measurement": "Max OI", "setting": "[2]; Transmural", "result": "0.65 ± 0.06"}, {"measurement": "Mean OI", "setting": "[2]; Transmural", "result": "0.48 ± 0.05"}, {"measurement": "OI Spatial CoV", "setting": "[2]; Transmural", "result": "0.17 ± 0.03"}, {"measurement": "OI Temporal CoV", "setting": "[2]; Transmural", "result": "0.13 ± 0.01"}]}
